According to PubChem BioAssay AID256 (DTP/NCI, 2004):
“And” between values parts separate entries of the source, which are not always exact repeats. Equal values may be shown once. Toxic doses and inconclusive results are not listed. How the source made its calls: active means survival T/C of 150% or more; inactive means T/C below 125% in these data.

Tested on: CD2F1 mice, L1210 leukemia ip, survival T/C
Assay: NCI In Vivo Anticancer Drug Screen. Data for tumor model L1210 Leukemia (intraperitoneal) in CD2F1 (CDF1) mice
Settings: higher = longer survival
In short: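 Read-out first: treated-group measurement over vehicle-control measurement, expressed as a ratio. Animals bore a transplanted tumor line and were dosed with compound or vehicle.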

[1] = endpoint: mean survival time, dose: 100.0 mg/kg/injection, schedule: Q01DX009 (ip), vehicle: saline with Tween-80
[2] = endpoint: mean survival time, dose: 100.0 mg/kg/injection, schedule: Q04DX003 (ip), vehicle: saline with Tween-80
[3] = endpoint: mean survival time, dose: 200.0 mg/kg/injection, schedule: Q01DX009 (ip), vehicle: saline with Tween-80
[4] = endpoint: mean survival time, dose: 200.0 mg/kg/injection, schedule: Q04DX003 (ip), vehicle: saline with Tween-80
[5] = endpoint: mean survival time, dose: 400.0 mg/kg/injection, schedule: Q01DX009 (ip), vehicle: saline with Tween-80
[6] = endpoint: mean survival time, dose: 400.0 mg/kg/injection, schedule: Q04DX003 (ip), vehicle: saline with Tween-80
[7] = endpoint: mean survival time, dose: 50.0 mg/kg/injection, schedule: Q01DX001 (ip), vehicle: saline
[8] = endpoint: mean survival time, dose: 100.0 mg/kg/injection, schedule: Q01DX001 (ip), vehicle: saline
[9] = endpoint: mean survival time, dose: 100.0 mg/kg/injection, schedule: Q01DX001 (ip), vehicle: saline with Tween-80

Measured: T/C

O=CNc1ccccc1Cl
inactive: [1] 101 % of control | [2] 94 % of control | [3] 98 % of control | [4] 95 % of control | [5] 91 % of control | [6] 91 % of control

CC1(C)SC(C(NC(=O)COc2ccccc2)C(=O)O)NC1C(=O)O (stereo not given)
inactive: [2] 97 % of control | [4] 97 % of control

CONc1ccn(C2OC(CO)C(O)C2O)c(=O)n1 (stereo not given)
inactive: endpoint: mean survival time, dose: 12.5 mg/kg/injection, schedule: Q01DX009 (ip), vehicle: saline 108 % of control | endpoint: mean survival time, dose: 25.0 mg/kg/injection, schedule: Q01DX009 (ip), vehicle: saline 108 % of control | endpoint: mean survival time, dose: 50.0 mg/kg/injection, schedule: Q01DX009 (ip), vehicle: saline 117 % of control | endpoint: mean survival time, dose: 100.0 mg/kg/injection, schedule: Q01DX009 (ip), vehicle: saline 121 % of control | endpoint: mean survival time, dose: 200.0 mg/kg/injection, schedule: Q01DX009 (ip), vehicle: saline 120 % of control | endpoint: mean survival time, dose: 400.0 mg/kg/injection, schedule: Q01DX009 (ip), vehicle: saline 97 % of control | endpoint: median survival time, dose: 12.5 mg/kg/injection, schedule: Q01DX009 (ip), vehicle: saline 101 % of control | endpoint: median survival time, dose: 25.0 mg/kg/injection, schedule: Q01DX009 (ip), vehicle: saline 108 % of control | endpoint: median survival time, dose: 50.0 mg/kg/injection, schedule: Q01DX009 (ip), vehicle: saline 108 % of control | endpoint: median survival time, dose: 100.0 mg/kg/injection, schedule: Q01DX009 (ip), vehicle: saline 111 % of control | endpoint: median survival time, dose: 200.0 mg/kg/injection, schedule: Q01DX009 (ip), vehicle: saline 112 % of control | endpoint: median survival time, dose: 400.0 mg/kg/injection, schedule: Q01DX009 (ip), vehicle: saline 120 % of control

NC1=NC(c2ccccc2)N(c2cccc(Cl)c2)C(N)=N1 (stereo not given)
inactive: endpoint: mean survival time, dose: 25.0 mg/kg/injection, schedule: Q01DX001 (ip), vehicle: saline 107 % of control | [7] 104 % of control | [8] 101 % of control

COc1nc(NC2OC(CO)C(O)C(O)C2O)c(I)c(=O)[nH]1 (stereo not given)
inactive: endpoint: median survival time, dose: 12.5 mg/kg/injection, schedule: Q01DX005 (ip), vehicle: saline 109 % of control | endpoint: median survival time, dose: 25.0 mg/kg/injection, schedule: Q01DX005 (ip), vehicle: saline 107 % of control | endpoint: median survival time, dose: 50.0 mg/kg/injection, schedule: Q01DX005 (ip), vehicle: saline 100 % of control | endpoint: median survival time, dose: 100.0 mg/kg/injection, schedule: Q01DX005 (ip), vehicle: saline 101 % of control | endpoint: median survival time, dose: 200.0 mg/kg/injection, schedule: Q01DX005 (ip), vehicle: saline 100 % of control

SCC1=NCCN1
inactive: endpoint: mean survival time, dose: 25.0 mg/kg/injection, schedule: Q04DX002 (ip), vehicle: saline 103 % of control | endpoint: mean survival time, dose: 50.0 mg/kg/injection, schedule: Q04DX002 (ip), vehicle: saline 98 % of control | endpoint: mean survival time, dose: 100.0 mg/kg/injection, schedule: Q04DX002 (ip), vehicle: saline 93 % of control and 95 % of control

Cc1cc(C)c(NS(=O)(=O)c2ccccc2)c(C)n1
inactive: [9] 103 % of control | endpoint: mean survival time, dose: 200.0 mg/kg/injection, schedule: Q01DX001 (ip), vehicle: saline with Tween-80 104 % of control | endpoint: mean survival time, dose: 400.0 mg/kg/injection, schedule: Q01DX001 (ip), vehicle: saline with Tween-80 104 % of control

CN(C)CCCNC(=S)S
inactive: endpoint: mean survival time, dose: 6.0 mg/kg/injection, schedule: Q04DX003 (ip), vehicle: saline 95 % of control | endpoint: mean survival time, dose: 12.0 mg/kg/injection, schedule: Q04DX003 (ip), vehicle: saline 93 % of control | endpoint: mean survival time, dose: 25.0 mg/kg/injection, schedule: Q04DX003 (ip), vehicle: saline 106 % of control

CC12CCC(O)CC1CCC1C2CCC2(C)C(C3=CC(=O)OC3)CCC12 (stereo not given)
inactive: [7] 96 % of control | [8] 98 % of control | endpoint: mean survival time, dose: 200.0 mg/kg/injection, schedule: Q01DX001 (ip), vehicle: saline 98 % of control

Nc1cccc2cc3ccccc3[n+]([O-])c12
inactive: [2] 104 % of control | [4] 108 % of control | [6] 95 % of control

O=C1NC(=O)C([P+](c2ccccc2)(c2ccccc2)c2ccccc2)C1=O (stereo not given)
inactive: [2] 102 % of control | [4] 102 % of control | [6] 98 % of control

NC(=O)/C=C/C(=O)NC(=O)Cc1ccccc1
inactive: endpoint: mean survival time, dose: 3.0 mg/kg/injection, schedule: Q01DX009 (ip), vehicle: saline with Tween-80 97 % of control | endpoint: mean survival time, dose: 6.0 mg/kg/injection, schedule: Q01DX009 (ip), vehicle: saline with Tween-80 98 % of control | endpoint: mean survival time, dose: 12.0 mg/kg/injection, schedule: Q01DX009 (ip), vehicle: saline with Tween-80 92 % of control

COc1ccc(CC(C)NC(=O)c2ccc(OC)c(OC)c2)cc1OC (stereo not given)
inactive: endpoint: mean survival time, dose: 12.5 mg/kg/injection, schedule: Q01DX009 (ip), vehicle: other 105 % of control | endpoint: mean survival time, dose: 25.0 mg/kg/injection, schedule: Q01DX009 (ip), vehicle: other 94 % of control | endpoint: mean survival time, dose: 50.0 mg/kg/injection, schedule: Q01DX009 (ip), vehicle: other 96 % of control | endpoint: mean survival time, dose: 100.0 mg/kg/injection, schedule: Q01DX009 (ip), vehicle: other 93 % of control | endpoint: mean survival time, dose: 200.0 mg/kg/injection, schedule: Q01DX009 (ip), vehicle: other 94 % of control

C1CCC2C(C1)CC1CCCCC1C2C1C2CCCCC2CC2CCCCC21 (stereo not given)
inactive: [2] 97 % of control | [4] 100 % of control | [6] 96 % of control

c1ccc(-c2cc3cc4ccccc4cn3c2)cc1
inactive: endpoint: median survival time, dose: 50.0 mg/kg/injection, schedule: Q01DX009 (ip), vehicle: saline with Tween-80 104 % of control | endpoint: median survival time, dose: 100.0 mg/kg/injection, schedule: Q01DX009 (ip), vehicle: saline with Tween-80 100 % of control | endpoint: median survival time, dose: 200.0 mg/kg/injection, schedule: Q01DX009 (ip), vehicle: saline with Tween-80 108 % of control | endpoint: median survival time, dose: 400.0 mg/kg/injection, schedule: Q01DX009 (ip), vehicle: saline with Tween-80 113 % of control | endpoint: median survival time, dose: 800.0 mg/kg/injection, schedule: Q01DX009 (ip), vehicle: saline with Tween-80 110 % of control

CCSCCN1C(=O)C2C3CCC(O3)C2C1=O (stereo not given)
inactive: endpoint: mean survival time, dose: 100.0 mg/kg/injection, schedule: Q04DX002 (ip), vehicle: saline with Tween-80 93 % of control | endpoint: mean survival time, dose: 200.0 mg/kg/injection, schedule: Q04DX002 (ip), vehicle: saline with Tween-80 93 % of control

CC(C)(O)c1cc(Cl)c(C#N)c(Cl)c1
inactive: endpoint: mean survival time, dose: 37.5 mg/kg/injection, schedule: Q04DX002 (ip), vehicle: saline with Tween-80 109 % of control | endpoint: mean survival time, dose: 75.0 mg/kg/injection, schedule: Q04DX002 (ip), vehicle: saline with Tween-80 102 % of control | endpoint: mean survival time, dose: 150.0 mg/kg/injection, schedule: Q04DX002 (ip), vehicle: saline with Tween-80 102 % of control | endpoint: mean survival time, dose: 300.0 mg/kg/injection, schedule: Q04DX002 (ip), vehicle: saline with Tween-80 93 % of control

Cc1csc(C)[n+]1C
inactive: endpoint: mean survival time, dose: 25.0 mg/kg/injection, schedule: Q01DX009 (ip), vehicle: saline sonified 102 % of control | endpoint: mean survival time, dose: 50.0 mg/kg/injection, schedule: Q01DX009 (ip), vehicle: saline sonified 104 % of control | [9] 100 % of control | endpoint: mean survival time, dose: 100.0 mg/kg/injection, schedule: Q01DX009 (ip), vehicle: saline sonified 98 % of control

COc1ccc(OC)c(NC(=O)Oc2ccc(C(=O)OCc3ccccc3)cc2)c1
inactive: [1] 101 % of control | [3] 104 % of control | [5] 104 % of control

CN(C)C(=O)c1ccc(Cl)c(Cl)c1
inactive: [1] 102 % of control | [3] 107 % of control

COc1ccc2cc3[n+](cc2c1OC)CCc1cc2c(cc1-3)OCO2
inactive: endpoint: mean survival time, dose: 5.0 mg/kg/injection, schedule: Q01DX009 (ip), vehicle: saline with Tween-80 106 % of control | endpoint: mean survival time, dose: 5.0 mg/kg/injection, schedule: Q04DX003 (ip), vehicle: saline with Tween-80 98 % of control | endpoint: mean survival time, dose: 10.0 mg/kg/injection, schedule: Q01DX009 (ip), vehicle: saline with Tween-80 93 % of control | endpoint: mean survival time, dose: 10.0 mg/kg/injection, schedule: Q04DX003 (ip), vehicle: saline with Tween-80 96 % of control | endpoint: mean survival time, dose: 20.0 mg/kg/injection, schedule: Q04DX003 (ip), vehicle: saline with Tween-80 94 % of control

CCCCCCCCCCCCCCCCCCCC
inactive: endpoint: mean survival time, dose: 25.0 mg/kg/injection, schedule: Q04DX003 (ip), vehicle: other 90 % of control | endpoint: mean survival time, dose: 50.0 mg/kg/injection, schedule: Q04DX003 (ip), vehicle: other 91 % of control | endpoint: mean survival time, dose: 100.0 mg/kg/injection, schedule: Q04DX003 (ip), vehicle: other 88 % of control
